{"source": "ChEMBL document CHEMBL1151299", "about": "“Flavonoids with anti-cataract activity from Brickellia arguta” (J Nat Prod, 1984)", "key": {"[1]": {"target": "Aldo-keto reductase family 1 member B1 (Rattus norvegicus) (UniProt P07943)", "test": "Inhibition of rat lens aldose reductase at 10 uM"}, "[2]": {"target": "Aldo-keto reductase family 1 member B1 (Rattus norvegicus) (UniProt P07943)", "test": "Inhibition of rat lens aldose reductase at 1 uM"}, "[3]": {"target": "Aldo-keto reductase family 1 member B1 (Rattus norvegicus) (UniProt P07943)", "test": "Inhibition of rat lens aldose reductase at 0.1 uM"}}, "data": [{"smiles": "O=C(O)CN1C(=O)c2cccc3cccc(c23)C1=O", "values": [{"measurement": "inhibition", "setting": "[1]", "result": 0, "unit": "%"}, {"measurement": "inhibition", "setting": "[2]", "result": 40, "unit": "%"}]}, {"smiles": "COc1c(O)cc2oc(-c3ccc(O)c(O)c3)c(O[C@@H]3O[C@H](CO[C@@H]4O[C@@H](C)[C@H](O)[C@@H](O)[C@H]4O)[C@H](O)[C@H](O)[C@H]3O)c(=O)c2c1O", "values": [{"measurement": "inhibition", "setting": "[1]", "result": 11, "unit": "%"}, {"measurement": "inhibition", "setting": "[2]", "result": 33, "unit": "%"}, {"measurement": "inhibition", "setting": "[3]", "result": 86, "unit": "%"}]}, {"smiles": "COc1c(O)cc2oc(-c3ccc(O)cc3)c(O[C@@H]3O[C@H](CO[C@@H]4O[C@@H](C)[C@H](O)[C@@H](O)[C@H]4O)[C@H](O)[C@H](O)[C@H]3O)c(=O)c2c1O", "values": [{"measurement": "inhibition", "setting": "[1]", "result": 9, "unit": "%"}, {"measurement": "inhibition", "setting": "[2]", "result": 32, "unit": "%"}, {"measurement": "inhibition", "setting": "[3]", "result": 63, "unit": "%"}]}, {"smiles": "COc1c(O)cc2oc(-c3ccc(O)c(O)c3)c(O[C@@H]3O[C@H](CO)[C@H](O)[C@H](O)[C@H]3O)c(=O)c2c1O", "values": [{"measurement": "inhibition", "setting": "[1]", "result": 7, "unit": "%"}, {"measurement": "inhibition", "setting": "[2]", "result": 38, "unit": "%"}, {"measurement": "inhibition", "setting": "[3]", "result": 84, "unit": "%"}]}]}
